This is an account of results in patent publication US20250353873A1, “COMPOUNDS AND METHODS FOR MODULATING APOE EXPRESSION” (Ionis Pharmaceuticals, Inc., priority 2024, published 2025).

In data set [1] the test system is human APOE RNA. The data set can be described thus: Activity in APOE 1549 knock-in mice, single ICV bolus, 4 weeks (Example 8). In kind it is in vivo. To be noted: n = 2, single ICV bolus of 300 μg, four weeks post treatment, Table 18. The protocol:
Modified oligonucleotides described above were tested in the 1549 APOE knock-in mouse model described above.
APOE knock-in mice were divided into groups of either 2 or 6 mice each as described in the tables below. Each mouse received a single intracerebroventricular (ICV) bolus of 300 μg of modified oligonucleotide. A group of either 3 or 6 mice received a single ICV bolus with PBS as a negative control.
Four weeks post treatment, mice were sacrificed and RNA was extracted from cortical brain tissue and spinal cord for quantitative real-time RT-PCR analysis of RNA expression of APOE using primer probe set RTS3073 (described herein above). APOE RNA levels were normalized to mouse Ppia. Mouse Ppia was amplified using primer probe set m_cyclo24 (described herein above). Results are presented as percent human APOE RNA relative to the amount of human APOE RNA in PBS treated animals, (% control). Each experiment is identified in separate tables below.

Data set [2] has as its system human APOE RNA. The data set can be described thus: Dose-dependent inhibition of human APOE RNA in HepG2 cells, electroporation, 24 hours (Example 6). The data set is classed as cell-based. A digest of the protocol:
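IC50 derived from APOE RNA levels, given as percent of untreated control after GAPDH normalization (probe sets RTS3073 and RTS104). Oligonucleotides were delivered at multiple concentrations by electroporation into HepG2 cells seeded at 50,000 per well.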

The subject of data set [3] is human APOE RNA. The data set can be described thus: Activity in APOE 1549 knock-in mice, single ICV bolus, 2 weeks (Example 7). In kind it is in vivo. Particulars: single ICV bolus of 300 μg, two weeks post treatment, Table 16. The method, then:
Modified oligonucleotides described above were tested in APOE knock-in mice.
APOE knock-in mice (model 41549) were obtained from Taconic Biosciences. APOE knock-in mice were divided into groups of 2 mice each. Each mouse received a single intracerebroventricular (ICV) bolus of 300 μg of modified oligonucleotide. A group of 4 mice received a single ICV bolus with PBS as a negative control.
Two weeks post treatment, mice were sacrificed and RNA was extracted from cortical brain tissue and spinal cord for quantitative real-time RT-PCR analysis of RNA expression of APOE using primer probe set RTS3073 (described herein above). APOE RNA levels were normalized to mouse Ppia. Mouse Ppia was amplified using primer probe set m_cyclo24 (forward sequence TCGCCGCTTGCTGCA, designated herein as SEQ ID NO: 16; reverse sequence ATCGGCCGTGATGTCGA, designated herein as SEQ ID NO: 17; probe sequence […], designated herein as SEQ ID NO: 18). Results are presented as percent human APOE RNA relative to the amount of human APOE RNA in PBS treated animals, (% control). Each experiment is identified in separate tables below.

pIC50: −log10 of the molar value. Strand notation (5' to 3'): a small letter for the sugar, then the base; units joined by * are phosphorothioate-linked, units joined directly phosphodiester-linked; [ ] holds rarer units or linkages, { } end groups; capitals alone tell only the bases. [ms] = mesyl phosphoramidate linkage; e = 2'-O-(2-methoxyethyl) (MOE); [5mC] = 5-methylcytosine; d = 2'-deoxy (DNA)

Regarding “1736521: 6-10-4 MOE gapmer CTTGGTGAATCTTTATTAAA, linkages sosssszzzsssssssoss (e[5mC]*eTeT*eG*eG*eT*dG[ms]dA[ms]dA[ms]dT*d[5mC]*dT*dT*dT*dA*dT*eTeA*eA*eA) [compound 1736521]”, the “APOE RNA (% control) Cortex” value in data set [1] (cortex) is 52 % control. Also, in data set [1] (spinal cord), the “APOE RNA (% control) Spinal Cord” value was found to be 50 % control. In data set [2], this substance had a negative-log IC50 (pIC50) of 6.40. Also, the “APOE RNA (% UTC)” value in data set [2] (5 nM) is recorded as 99 % UTC; in data set [2] (13 nM), 109 % UTC; in data set [2] (33 nM) it was 84 % UTC; in data set [2] (82 nM) it was 69 % UTC; in data set [2] (205 nM), 65 % UTC; in data set [2] (512 nM), 40 % UTC. The “APOE RNA (% UTC)” value in data set [2] (1,280 nM) is on record as 34 % UTC; in data set [2] (3,200 nM), 18 % UTC; in data set [2] (8,000 nM), 10 % UTC; in data set [2] (20,000 nM), 3 % UTC.
On to “1601948: 6-10-4 MOE gapmer GTTCAAATTCCATCCCCCCA, linkages sooooossssssssssoss (antisense eG*eTeTe[5mC]eAeAdA*dT*dT*d[5mC]*d[5mC]*dA*dT*d[5mC]*d[5mC]*d[5mC]*e[5mC]e[5mC]*e[5mC]*eA) [compound 1601948]”, for which, in data set [3], the “APOE RNA (% control) Cortex” value is 112 % control and the “APOE RNA (% control) Spinal Cord” value is 105 % control.
In the same order, the values of “1601958: 6-10-4 MOE gapmer CTTCACATTCTAAGCTCCAA, linkages sooooossssssssssoss (antisense e[5mC]*eTeTe[5mC]eAe[5mC]dA*dT*dT*d[5mC]*dT*dA*dA*dG*d[5mC]*dT*e[5mC]e[5mC]*eA*eA) [compound 1601958]” are 109 % control and 102 % control.
The like results for “1601956: 6-10-4 MOE gapmer AAGTTCTCCAATCGACGGCT, linkages sooooossssssssssoss (antisense eA*eAeGeTeTe[5mC]dT*d[5mC]*d[5mC]*dA*dA*dT*d[5mC]*dG*dA*d[5mC]*eGeG*e[5mC]*eT) [compound 1601956]” were, in that order, 104 % control and 107 % control.
As to “1601944: 6-10-4 MOE gapmer CTGGTCTTCTCTTATCTCCC, linkages sooooossssssssssoss (antisense e[5mC]*eTeGeGeTe[5mC]dT*dT*d[5mC]*dT*d[5mC]*dT*dT*dA*dT*d[5mC]*eTe[5mC]*e[5mC]*e[5mC]) [compound 1601944]”, in data set [3], the “APOE RNA (% control) Cortex” value amounted to 109 % control and the “APOE RNA (% control) Spinal Cord” value is listed as 95 % control.
In the same order, the values of “1601957: 6-10-4 MOE gapmer TCCTCATTTTAAAGTTCTCC, linkages sooooossssssssssoss (antisense eT*e[5mC]e[5mC]eTe[5mC]eAdT*dT*dT*dT*dA*dA*dA*dG*dT*dT*e[5mC]eT*e[5mC]*e[5mC]) [compound 1601957]” are 101 % control and 90 % control.
